Assay in all cases: NCI tumour cell line growth inhibition, 48 h
Test [1] deals with 786-0 renal.
The subject of test [2] is A498 renal.
Test [3] relates to CAKI-1 renal.
The test system of test [4] is IGROV1 ovarian.
The subject of test [5] is MDA-MB-231 breast.
For test [6], the system named is NCI-H522 lung.
The subject of test [7] is NCI/ADR-RES ovarian.
The test system of test [8] is SW-620 colon.
For test [9], the system named is UACC-257 melanoma.
Test [10] deals with EKVX NSCLC.

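Where inhibition never reached the appropriate level, the endpoint shown equals the highest concentration tested. Otherwise, values were interpolated linearly from a five-concentration, 48-hour dose response in 96-well plates. The concentration for 50% growth inhibition is given as GI50. TGI denotes the concentration required for complete inhibition of growth.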

For `C[C@@H](Oc1cc(-c2cnn(C3CC4(CCNCC4)C3)c2)cnc1N)c1c(F)ccc(Cl)c1Cl`, the GI50 in [1] is 1.63 µM; in test [2], 0.488 µM; in test [3] it was 2.41 µM; in test [4], 2.23 µM; in test [5], 1.26 µM; in test [6], 1.48 µM. The GI50 in test [7] is 6.61 µM; in test [8], 0.537 µM; in test [9], 1.47 µM. For the same molecule, the TGI in [1] was determined as 3.17 µM; in test [2] it was 2.35 µM; in test [3], 7.2 µM; in test [4], 7.91 µM; in test [5], 3 µM; in [6] it was 3.12 µM. Also, the results for the TGI in test [7], in test [8] and in [9] were 21.2 µM, 2.33 µM and 2.99 µM, respectively.
As for `O=c1[nH]cnc2c1nnn2[C@@H]1O[C@H](CO)[C@@H](O)[C@H]1O`, the GI50 is 3.83 µM in test [1]; 2.51 µM in test [2]; 1.04 µM in [3]; 2.57 µM in test [4]; 7.68 µM in [5]; 4.55 µM in test [6]. The GI50 was 2.27 µM in test [7], 3.01 µM in [8] and 28.6 µM in [9]. For the same molecule, the TGI is above 100 µM in [1]; 57.4 µM in test [2]; above 100 µM in test [3]; 58.1 µM in [4]; above 100 µM in test [5]; 63.4 µM in test [6]. For the same molecule, the TGI in [7], in test [8] and in test [9] was above 100 µM throughout.
For the molecule `O=C(Nc1nc(-c2ccc(Cl)cc2)cs1)c1ccc(O)c(O)c1`, the GI50 in test [1] was 4.07 µM; in test [2], 3.37 µM; in test [3], 3.02 µM; in [4], 2.38 µM; in [5], 4.39 µM; in test [6] it was 1.8 µM. Moreover, the GI50 in test [7] was 3.89 µM; in test [8] it was 4.74 µM; in [9], 6.29 µM. Moreover, the TGI in [1] was 15.3 µM; in test [2], 15.5 µM; in [3] it was 10.9 µM; in test [4], 8.04 µM; in [5], 20.4 µM; in [6], 9.97 µM. The TGI in test [7] amounted to 20.3 µM; in [8] it was 20.1 µM; in [9], 24.3 µM.
On to `O=C(Nc1cccc(-c2nc3ccccc3[nH]2)c1)c1cccc(NC(=O)c2ccco2)c1`, for which the GI50 in test [1] was 1.65 µM; in test [2] it was 4.33 µM; in [3] it was 2.53 µM; in test [4], 5.34 µM; in test [5] it was 1.98 µM; in [6] it was 2.5 µM. The GI50 is 7.92 µM in [7], 3.19 µM in test [8] and 2.3 µM in [9]. Moreover, the TGI in test [1] was 3.05 µM; in test [2], 18.3 µM; in [3], 7.21 µM; in test [4], 17 µM; in test [5] it was 4.85 µM; in [6], 6.41 µM. Besides, the results for the TGI in test [7], in [8] and in test [9] were 66 µM, 10.8 µM and 5.34 µM, respectively.
Turning to `COc1cc(N)ccc1Nc1c2ccccc2nc2ccccc12`, the GI50 in test [1] is 12.7 µM; in test [2], 6.28 µM; in [3], 7.75 µM; in test [4], 10.2 µM; in [5], 13.1 µM; in test [6], 17.9 µM. Besides, the GI50 in test [7] was 15.4 µM; in test [8] it was 3.55 µM; in [9], 20.2 µM. The TGI in test [1] is 27.2 µM; in [2], 22.4 µM; in [3] it was 25.1 µM; in [4] it was above 59.4 µM; in test [5], 28.6 µM; in test [6], 51.3 µM. Besides, the results for the TGI in test [7], in test [8] and in [9] were 45.3 µM, 13.5 µM and 44 µM, respectively.
On to `C=C1C(=O)O[C@H]2[C@H]1CC/C(COC(=O)NCCc1c[nH]c3ccccc13)=C\CC[C@@]1(C)O[C@@H]21`, for which the GI50 is 1.17 µM in test [1]; 8.19 µM in test [2]; 1.51 µM in test [10]; 1.09 µM in test [4]; 1.48 µM in test [5]; 1.26 µM in [6]. Moreover, the results for the GI50 in test [7], in test [8] and in [9] were 2.5 µM, 1.2 µM and 2 µM, respectively. The TGI in test [1] amounted to 2.81 µM; in [2] it was 21.2 µM; in test [10], 3.57 µM; in [4], 2.9 µM; in [5], 3.3 µM; in test [6] it was 2.84 µM. The TGI was 11.8 µM in [7], 2.81 µM in test [8] and 4.83 µM in test [9].
For the molecule `CCN(CC)CCCC(C)N/C(c1cccc(OC)c1)=c1\c(=O)[nH]n(-c2c3ccccc3nc3ccccc23)c(=O)\c1=C(/NC(C)CCCN(CC)CC)c1cccc(OC)c1` (centres undefined), the GI50 is 1.17 µM in test [1]; 1.52 µM in [2]; 1.66 µM in test [3]; 1.52 µM in test [4]; 1.25 µM in [5]; 1.55 µM in test [6]. Further, the figures for the GI50 in [7], in test [8] and in [9] were 1.79 µM, 0.528 µM and 1.78 µM, respectively. Moreover, the TGI in test [1] stood at 3.04 µM; in test [2], 2.93 µM; in test [3] it was 4.17 µM; in test [4], 4.99 µM; in test [5] it was 3.26 µM; in test [6] it was 3.21 µM. In addition, the TGI in [7] came to 8.91 µM; in [8], 6.82 µM; in test [9], 3.43 µM.
In the case of `Cc1cc(Nc2nc(N3CCOCC3)nc3ccccc23)n[nH]1`, the GI50 is 3.91 µM in test [1]; 1.01 µM in [2]; 1.4 µM in test [3]; 2.12 µM in test [4]; 15 µM in test [5]; 17.4 µM in test [6]. For the same molecule, the GI50 is 18.2 µM in test [7], 4.81 µM in test [8] and 87.7 µM in [9]. The TGI in test [1] was 26.1 µM; in test [2] it was 5.33 µM; in test [3] it was 12.3 µM; in test [4] it was 27.1 µM; in test [5], above 100 µM; in test [6], above 100 µM. In addition, the TGI in test [7] is above 100 µM; in test [8], 56.8 µM; in test [9], above 100 µM.

(Values after PubChem BioAssay (NCI).)
